In patent publication US20230117034A1, “PYRAZOLOTRIAZINES” (Bayer Aktiengesellschaft, priority 2019, published 2023):
Like-named read-outs stand apart in the source and are kept apart here.

Legend:
[1] = test system: CAL-120, human breast adenocarcinoma cells; assay: Proliferation assay CAL-120 (crystal violet, 4 days); assay type: cell-based; conditions: CAL-120 cells, median, read-out: Prolif-CAL-120, IC50-[mol/l] (median)
Summary of the method: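 Growth was measured by crystal violet staining after cells had been treated with compounds (0.01-10 µmol/L, 0.1% DMSO) for 4 days, beginning 24 h after seeding. Values were normalized to a zero-point plate and to untreated controls, and IC50 values were derived by a four-parameter fit.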

CDK2/CycE = biological target: T1, CDK2/CycE (Homo sapiens, UniProt P24941); assay: CDK2/CycE kinase assay (TR-FRET, 2 mM ATP); assay type: biochemical; conditions: 2 mM ATP (high ATP); median; read-out: CDK2/CyclinE, 2 mM ATP (high ATP), IC50 (median)
T1 construct: purchased ProQinase GmbH (Freiburg, Germany); host or cells: insect cells (Sf9)
Summary of the method: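 Biotin-peptide phosphorylation (0.75 µM substrate, 2 mM ATP final, 25 min, 22 °C) by Sf9-expressed GST-CDK2/GST-CycE, after a 15-min compound pre-binding step. Inhibition scaled between enzyme-free (100%) and uninhibited (0%) wells.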

[2] = test system: BRCA1 mRNA expression in MDA-MB-231 cells; assay: qRT-PCR assay: BRCA1 mRNA expression in MDA-MB-231; assay type: cell-based, human; conditions: Homo sapiens, MDA-MB-231, Inhibition of BRCA1 mRNA expression in MDA-MB-231 cells; median; read-out: RTqPCR-MDA-MB-231, IC50, BRCA1 (median)
Summary of the method: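 First, cells are plated at 200,000 per well and allowed 24 h. Second, test substances are applied continuously for a further 24 h. Finally, RNA is isolated, 600 ng is converted to cDNA, and qPCR quantifies the transcript relative to GAPDH.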

Compound	IC50 ([1]; Homo sapiens, CAL-120, 96 h) [nM]	IC50 (CDK2/CycE) [nM]	IC50 [2] [nM]	IC50 [1] [nM]
Fc1cccc2[nH]c(CNc3nc(N4C[C@H]5CC[C@@H](C4)N5)nc4c(C5CC5)cnn34)nc12 [Example 296, 8-cyclopropyl-2-[(1R,5S)-3,8-diazabicyclo[3.2.1]octan-3-yl]-N-[(4-fluoro-1H-benzimidazol-2-yl)methyl]pyrazolo[1,5-a][1,3,5]triazin-4-amine]	1.52	5610	1.27	–
Fc1cccc2[nH]c(CNc3nc(N4CCOCC4)nc4c(CC(F)(F)F)cnn34)nc12 [Example 303, N-[(4-fluoro-1H-benzimidazol-2-yl)methyl]-2-(morpholin-4-yl)-8-(2,2,2-trifluoroethyl)pyrazolo[1,5-a][1,3,5]triazin-4-amine]	7.9	> 20000	4.79	–
Fc1ccc2[nH]c(CNc3nc(N4CCOCC4)nc4c(C5CCCC5)cnn34)nc2c1F [Example 262, 8-cyclopentyl-N-[(4,5-difluoro-1H-benzimidazol-2-yl)methyl]-2-(morpholin-4-yl)pyrazolo[1,5-a][1,3,5]triazin-4-amine]	60.9	> 20000	–	–
Brc1cnn2c(NCc3ncc(-c4ccccc4)[nH]3)nc(N3CCOCC3)nc12 [Example 23, 8-bromo-2-(morpholin-4-yl)-N-[(5-phenyl-1H-imidazol-2-yl)methyl]pyrazolo[1,5-a][1,3,5]triazin-4-amine]	–	1410	3.83	–
Fc1ccc2[nH]c(CNc3nc(N4CCOCC4)nc4c(C5CCOCC5)cnn34)nc2c1F [Example 276, N-[(4,5-difluoro-1H-benzimidazol-2-yl)methyl]-2-(morpholin-4-yl)-8-(oxan-4-yl)pyrazolo[1,5-a][1,3,5]triazin-4-amine]	165	> 20000	–	–
Fc1ccc2[nH]c(CNc3nc(N4CCOCC4)nc4c(C(F)(F)F)cnn34)nc2c1 [Example 273, N-[(5-fluoro-1H-benzimidazol-2-yl)methyl]-2-(morpholin-4-yl)-8-(trifluoromethyl)pyrazolo[1,5-a][1,3,5]triazin-4-amine]	4.49	–	1.95	–
FC(F)(F)Cc1cnn2c(NCc3nc4ccccc4[nH]3)nc(N3CCOCC3)nc12.O=CO [Example 265, formic acid-N-[(1H-benzimidazol-2-yl)methyl]-2-(morpholin-4-yl)-8-(2,2,2-trifluoroethyl)pyrazolo[1,5-a][1,3,5]triazin-4-amine (1/1)]	35.4	> 20000	–	–
CN1CCN(c2nc(NCc3nc4c(F)cccc4[nH]3)n3ncc(C(F)(F)F)c3n2)CC1 [Example 293, N-[(4-fluoro-1H-benzimidazol-2-yl)methyl]-2-(4-methylpiperazin-1-yl)-8-(trifluoromethyl)pyrazolo[1,5-a][1,3,5]triazin-4-amine]	8.88	–	5.68	–
c1ccc2[nH]c(CNc3nc(N4CCOCC4)nc4c(C5CCCC5)cnn34)nc2c1 [Example 244, N-[(1H-benzimidazol-2-yl)methyl]-8-cyclopentyl-2-(morpholin-4-yl)pyrazolo[1,5-a][1,3,5]triazin-4-amine]	218	> 20000	–	–

Second part, the compound after the results:

IC50 ([1]; Homo sapiens, CAL-120, 96 h) [nM]	IC50 (CDK2/CycE) [nM]	IC50 [2] [nM]	IC50 [1] [nM]	Compound
80.3	2550	–	–	CC(C)CNc1nc(NCc2nc3ccccc3[nH]2)n2ncc(Br)c2n1 [Example 285, N^4-[(1H-benzimidazol-2-yl)methyl]-8-bromo-N^2-(2-methylpropyl)pyrazolo[1,5-a][1,3,5]triazine-2,4-diamine]
–	7290	–	38.9	CC1CN(C)CCN1c1nc(NCc2nc3ccccc3[nH]2)n2ncc(Br)c2n1 (single isomer, unassigned; enantiomer 2) [Example 261, N-(1H-benzimidazol-2-ylmethyl)-8-bromo-2-[(2R or S)-2,4-dimethylpiperazin-1-yl]pyrazolo[1,5-a][1,3,5]triazin-4-amine (Enantiomer 2)]
3.1	5000	7.35	–	N[C@H]1CCN(c2nc(NCc3nc4ccccc4[nH]3)n3ncc(Br)c3n2)C1 [Example 245, 2-[(3S)-3-aminopyrrolidin-1-yl]-N-[(1H-benzimidazol-2-yl)methyl]-8-bromopyrazolo[1,5-a][1,3,5]triazin-4-amine]
86.7	8430	–	–	OCC1CN(c2nc(NCc3nc4ccccc4[nH]3)n3ncc(Br)c3n2)C1 [Example 304, [1-(4-{[(1H-benzimidazol-2-yl)methyl]amino}-8-bromopyrazolo[1,5-a][1,3,5]triazin-2-yl)azetidin-3-yl]methanol]
32.8	> 20000	–	–	Brc1cnn2c(NCc3nc4ccccc4[nH]3)nc(N3C[C@H]4CN[C@H]4C3)nc12.O=C(O)C(F)(F)F [Example 255, trifluoroacetic acid-N-[(1H-benzimidazol-2-yl)methyl]-8-bromo-2-[(1R,5R)-3,6-diazabicyclo[3.2.0]heptan-3-yl]pyrazolo[1,5-a][1,3,5]triazin-4-amine (1/1)]
45.2	10200	–	–	CC1(O)CCN(c2nc(NCc3nc4ccccc4[nH]3)n3ncc(Br)c3n2)C1 (single isomer, unassigned) [Example 282, (3R or S)-1-(4-{[(1H-benzimidazol-2-yl)methyl]amino}-8-bromopyrazolo[1,5-a][1,3,5]triazin-2-yl)-3-methylpyrrolidin-3-ol]
–	11400	–	–	Brc1cnn2c(NCc3nc4cccnc4[nH]3)nc(N3CCNCC3)nc12.O=CO [Example 19, 8-bromo-N-[(3H-imidazo[4,5-b]pyridin-2-yl)methyl]-2-(piperazin-1-yl)pyrazolo[1,5-a][1,3,5]triazin-4-amine formic acid salt]
69.4	16100	–	–	Brc1cnn2c(NCc3nc4ccccc4[nH]3)nc(N3C[C@@H]4CN[C@@H]4C3)nc12.O=C(O)C(F)(F)F [Example 267, trifluoroacetic acid-N-[(1H-benzimidazol-2-yl)methyl]-8-bromo-2-[(1S,5S)-3,6-diazabicyclo[3.2.0]heptan-3-yl]pyrazolo[1,5-a][1,3,5]triazin-4-amine (1/1)]
64.1	17400	–	–	CN1CCN(c2nc(NCc3nc4ccccc4[nH]3)n3ncc(Br)c3n2)C(CO)C1 (single isomer, unassigned) [Example 280, [(2R or S)-1-(4-{[(1H-benzimidazol-2-yl)methyl]amino}-8-bromopyrazolo[1,5-a][1,3,5]triazin-2-yl)-4-methylpiperazin-2-yl]methanol]
85.4	3280	–	–	C[C@@]1(O)CCN(c2nc(NCc3nc4ccccc4[nH]3)n3ncc(Br)c3n2)C1 (single isomer, unassigned) [Example 281, (3R or S)-1-(4-{[(1H-benzimidazol-2-yl)methyl]amino}-8-bromopyrazolo[1,5-a][1,3,5]triazin-2-yl)-3-methylpyrrolidin-3-ol]
–	15500	131	–	Brc1cnn2c(NCc3nc4ccncc4[nH]3)nc(N3CCOCC3)nc12 [Example 22, 8-bromo-N-[(3H-imidazo[4,5-c]pyridin-2-yl)methyl]-2-(morpholin-4-yl)pyrazolo[1,5-a][1,3,5]triazin-4-amine]
102	2100	–	–	NC1(C(F)(F)F)CCN(c2nc(NCc3nc4ccccc4[nH]3)n3ncc(Br)c3n2)C1 (centres unmarked) [Example 266, 2-[3-amino-3-(trifluoromethyl)pyrrolidin-1-yl]-N-(1H-benzimidazol-2-ylmethyl)-8-bromo-pyrazolo[1,5-a][1,3,5]triazin-4-amine]
